For one molecule, Efficacy results are on record in patent US20100099774A1 (priority 2007, published 2010).

What all share (assay type): cell-based
One test concerns Pyricularia oryzae. Conditions: 63 ppm, 2% aqueous biomalt solution, 405 nm, 7 days after inoculation, Abbot's formula.
A further test concerns Colleotrichum truncatum. Particulars: 63 ppm, 2% aqueous biomalt solution, 405 nm, 7 days after inoculation, Abbot's formula.
Test [1] deals with Pseudocercosporella herpotrichoides R-Type. Particulars: 63 ppm.
The next test deals with Rhynchosporium secalis. Particulars: 63 ppm.
The test system of another test is Leptosphaeria nodorum. Conditions: 63 ppm.
In a further test the test system is Colleotrichum lagenarium. Particulars: 63 ppm, 2% aqueous biomalt solution, 405 nm, 7 days after inoculation, Abbot's formula.
The subject of a further test is Septoria tritici. Particulars: 63 ppm.
Test [2] has as its system Pseudocercosporella herpotrichoides W-Type. Particulars: 63 ppm.
The test system of a further test is Corynespora cassiicola. Particulars: 63 ppm.
The test system of another test is Pyrenophora teres. Particulars: 63 ppm.
In the next test the test system is Monographella nivalis. Particulars: 63 ppm.
The next test deals with Phytophthora infestans. Conditions: 63 ppm, pea juice-based aqueous nutrient medium, 405 nm, 7 days after inoculation, Abbot's formula.
In the next test the test system is Septoria glycines. Particulars: 63 ppm.

In the case of `CCN/C(=N\Nc1c(Cl)cc(C(F)(F)F)cc1Cl)C1(C)CC1(Cl)Cl` (stereo not drawn) [compound I-2, N-Ethyl-2,2-dichloro-1-methylcyclopropane-carboxamide-2-(2,6-dichloro-α,α,α-trifluoro-p-tolyl)hydrazone], the Efficacy is 91% in the test on Pyricularia oryzae; 100% with Colleotrichum truncatum; 100% in [1]; 100% in the test with Rhynchosporium secalis; 100% in the test with Leptosphaeria nodorum; 89% with Colleotrichum lagenarium. The Efficacy in the test on Septoria tritici stood at 100%; in [2] it was 100%; in the test with Corynespora cassiicola it was 100%; in the test with Pyrenophora teres, 96%; in the test on Monographella nivalis it was 100%; with Phytophthora infestans it was 100%. The molecule further returned an Efficacy in the test on Septoria glycines of 100%.
